Results taken from US12391671B2, “Allosteric EGFR inhibitors and methods of use thereof” (Dana-Farber Cancer Institute, Inc., priority 2019, dated 2025).
Structures can show the parent of a compound that is named as a salt. Where two headings read alike, the source gives them in different places.

Tests used:
[1] = biological target: EGFR L858R/T790M (Homo sapiens (Human), UniProt P00533, L858R/T790M); assay: HTRF-based EGFR biochemical assay (L858R/T790M); conditions: 100 μM ATP, enzyme 0.02 nM
Protocol: (§1) Example 25: HTRF-Based EGFR Biochemical Assays
(§2) EGFR biochemical activity measurements were carried out using the homogeneous time-resolved fluorescence (HTRF) assay (Cisbio), inhibitors and DMSO normalizations were first dispensed to empty black low-volume 384-well plates (Corning) with 0300 digital liquid dispenser (HP). All reactions were carried out at room temperature and solutions were added to plates with a Multidrop Combi Reagent Dispenser (ThermoFisher). The reaction mixture (10 μL final volume) contained 1 μM tyrosine kinase peptide-biotin substrate and mutant EGFR in a reaction buffer (50 mM HEPES pH 7.0, 5 mM MgCl2, 1 mM MnCl2, 0.01% BSA, 2 mM TCEP, 0.1 mM NaVO4). Enzyme concentrations were adjusted to accommodate varying kinase activities (L858R 0.1 nM, L858R/T790M 0.02 nM). Enzyme reaction solution (2× concentrations, 5 μL) was added to 384-well plates containing compounds and incubated for 30 mins. Enzyme reactions were initiated with the addition of 5 μL of ATP to a final concentration of 100 μM and reacted for 20 mins. Reactions were quenched with the addition of 10 μL of phospho-tyrosine antibody-Europium(III) cryptate (1-to-180 volume ratio) and Streptavidin-XL665 (46.7 nM) in EDTA-containing detection buffer, then incubated at room temperature for 1 hour, and read with a PHERAstar plate reader (excitation=337 nm, emission=620 nm and 665 nm).

[2] = biological target: EGFR L858R (Homo sapiens (Human), UniProt P00533, L858R); assay: HTRF-based EGFR biochemical assay (L858R); conditions: 100 μM ATP, enzyme 0.1 nM
Protocol: as §1, §2

[3] = system: EGFR mutant L858R/T790M Ba/F3 cells; assay: Ba/F3 cell proliferation model (Cell Titer Glo), EGFR L858R/T790M; assay type: cell-based, murine; conditions: 72 hours
Description: Example 26: Ba/F3 Cell Proliferation Models
The EGFR mutant L858R and L858R/T790M Ba/F3 cells have been previously described (Zhou, W., et al. Nature 462, 2009, 1070-1074). All cell lines were maintained in RPM 1640 (Cellgro; Mediatech Inc., Herndon. CA) supplemented with 10% FBS, 100 units/mL penicillin, 100 units/mL streptomycin. The EGFR I941R mutation was introduced via site directed mutagenesis using the Quick Change Site-Directed Mutagenesis kit (Stratagene; La Jolla, CA) according to the manufacturer's instructions. All constructs were confirmed by DNA sequencing. The constructs were shuttled into the retroviral vector JP1540 using the Cre-recombination system (Agilent Technologies, Santa Clara, CA). Ba/F3 cells were then infected with retrovirus per standard protocols, as described previously (Zhou, et al, Nature 2009). Stable clones were obtained by selection in puromycin (2 μg/ml).
Growth and inhibition of growth was assessed by the Cell Titer Glo® assay (Promega, Madison, WI) and was performed according to the manufacturer's instructions. The Cell Titer Glo® assay is a luminescence-based method used to determine the number of viable cells based on quantitation of the ATP present, which is directly proportional to the amount of metabolically active cells present. Ba/F3 cells of different EGFR genotypes were exposed to compounds as a single agent or in combination with 1 μg/mL cetuximab for 72 hours and the number of cells used per experiment was determined empirically as has been previously established (Zhou, et al., Nature 2009). All experimental points were set up in triplicates in 384-well plates and all experiments were repeated at least three times. […] The curves were fitted using a non-linear regression model with a sigmoidal dose response.

[4] = Mus musculus, BaF3, single agent, read-out: Cell IC50 BaF3 EGFR L858R/T790M
[5] = in combination with 1 μg/mL cetuximab, read-out: Cell IC50 BaF3 EGFR L858R/T790M (+cetux.)

Sequence of EGFR L858R/T790M (P00533 25-1210 T790M/L858R): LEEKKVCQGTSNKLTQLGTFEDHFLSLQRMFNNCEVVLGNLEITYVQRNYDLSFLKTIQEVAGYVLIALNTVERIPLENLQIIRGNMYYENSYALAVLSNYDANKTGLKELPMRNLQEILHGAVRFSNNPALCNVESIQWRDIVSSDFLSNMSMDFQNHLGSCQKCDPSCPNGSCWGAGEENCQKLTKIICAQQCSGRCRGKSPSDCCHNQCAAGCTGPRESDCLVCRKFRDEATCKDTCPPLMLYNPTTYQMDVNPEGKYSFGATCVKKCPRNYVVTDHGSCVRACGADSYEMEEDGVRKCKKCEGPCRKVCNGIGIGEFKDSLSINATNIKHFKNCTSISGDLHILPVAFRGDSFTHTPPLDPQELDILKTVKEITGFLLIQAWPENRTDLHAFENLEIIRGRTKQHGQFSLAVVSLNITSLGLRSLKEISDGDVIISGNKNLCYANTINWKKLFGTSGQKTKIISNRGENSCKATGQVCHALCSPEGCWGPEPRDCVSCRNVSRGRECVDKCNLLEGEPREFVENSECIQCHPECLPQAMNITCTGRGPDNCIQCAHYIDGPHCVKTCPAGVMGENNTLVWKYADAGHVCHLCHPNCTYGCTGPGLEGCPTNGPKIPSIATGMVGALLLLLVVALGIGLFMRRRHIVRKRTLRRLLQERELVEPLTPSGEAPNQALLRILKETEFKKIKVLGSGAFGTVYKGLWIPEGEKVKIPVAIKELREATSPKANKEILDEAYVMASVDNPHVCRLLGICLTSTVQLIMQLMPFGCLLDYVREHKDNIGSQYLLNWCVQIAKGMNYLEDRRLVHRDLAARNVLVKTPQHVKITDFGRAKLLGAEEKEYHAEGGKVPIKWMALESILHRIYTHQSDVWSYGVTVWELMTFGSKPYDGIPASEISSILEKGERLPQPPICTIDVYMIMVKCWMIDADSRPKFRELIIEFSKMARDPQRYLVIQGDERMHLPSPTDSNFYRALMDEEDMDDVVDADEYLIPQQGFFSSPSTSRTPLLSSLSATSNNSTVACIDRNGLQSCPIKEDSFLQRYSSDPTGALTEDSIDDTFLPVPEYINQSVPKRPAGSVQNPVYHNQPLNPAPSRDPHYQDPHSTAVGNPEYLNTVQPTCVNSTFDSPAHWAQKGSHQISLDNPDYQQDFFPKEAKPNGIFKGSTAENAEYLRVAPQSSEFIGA
Sequence of EGFR L858R (P00533 25-1210 L858R): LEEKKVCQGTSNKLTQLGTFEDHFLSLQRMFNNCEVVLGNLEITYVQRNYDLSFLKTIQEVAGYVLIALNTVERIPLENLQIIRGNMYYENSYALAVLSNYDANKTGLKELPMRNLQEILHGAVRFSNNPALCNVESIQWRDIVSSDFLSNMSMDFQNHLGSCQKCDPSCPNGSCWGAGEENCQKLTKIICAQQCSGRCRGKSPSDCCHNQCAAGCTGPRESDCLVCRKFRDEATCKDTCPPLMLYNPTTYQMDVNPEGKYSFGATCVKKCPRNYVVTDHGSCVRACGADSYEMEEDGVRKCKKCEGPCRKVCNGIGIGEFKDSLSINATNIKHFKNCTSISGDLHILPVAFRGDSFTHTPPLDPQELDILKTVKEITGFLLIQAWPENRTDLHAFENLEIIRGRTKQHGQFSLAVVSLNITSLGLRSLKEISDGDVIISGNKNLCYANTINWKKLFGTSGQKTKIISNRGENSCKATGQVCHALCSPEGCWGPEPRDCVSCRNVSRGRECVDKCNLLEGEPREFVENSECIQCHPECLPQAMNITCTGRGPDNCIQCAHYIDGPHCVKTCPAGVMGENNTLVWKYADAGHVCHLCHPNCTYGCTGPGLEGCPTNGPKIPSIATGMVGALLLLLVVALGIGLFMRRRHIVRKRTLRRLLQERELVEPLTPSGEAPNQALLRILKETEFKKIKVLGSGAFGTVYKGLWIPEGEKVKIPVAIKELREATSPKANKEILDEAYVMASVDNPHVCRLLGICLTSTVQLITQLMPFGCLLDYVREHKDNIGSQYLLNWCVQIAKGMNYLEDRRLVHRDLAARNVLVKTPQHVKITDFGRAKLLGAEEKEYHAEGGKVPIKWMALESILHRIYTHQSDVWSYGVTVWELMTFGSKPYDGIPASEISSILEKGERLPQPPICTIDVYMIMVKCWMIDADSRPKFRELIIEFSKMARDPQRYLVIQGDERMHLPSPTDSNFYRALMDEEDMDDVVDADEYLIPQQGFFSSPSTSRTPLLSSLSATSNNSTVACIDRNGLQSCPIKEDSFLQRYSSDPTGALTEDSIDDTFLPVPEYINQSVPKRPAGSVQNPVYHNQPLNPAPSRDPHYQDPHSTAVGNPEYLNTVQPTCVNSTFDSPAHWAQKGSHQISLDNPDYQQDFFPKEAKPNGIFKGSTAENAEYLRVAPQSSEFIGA

SMILES	IC50 [1] [nM]	IC50 [2] [nM]	IC50 [3, 4] [nM]	IC50 [3, 5] [nM]
COc1cccc2[nH]c(C(c3cc(F)ccc3O)N3Cc4ccc(-c5ccc(C6CCN(C)CC6)cc5)cc4C3=O)nc12 (stereo not drawn) [Compound 051]	1	10	3920	1050
CN1CCC(c2ccc(-c3ccc4c(c3)C(=O)N(C(c3nc5ccccc5[nH]3)c3cc(F)ccc3O)C4)c(F)c2)CC1 (stereo not drawn) [Compound 029, 2-[1H-benzimidazol-2-yl-(5-fluoro-2-hydroxy-phenyl)-methyl]-6-[2-fluoro-4-(1-methyl-4-piperidyl)phenyl]isoindolin-1-one; formic acid]	0.6	2	760	20
O=C1c2cc(C#CCN3CCS(=O)(=O)CC3)ccc2CN1C(c1nc2ccccc2[nH]1)c1cc(F)ccc1O (stereo not drawn) [Compound 013, 2-[1H-benzimidazol-2-yl-(5-fluoro-2-hydroxy-phenyl)methyl]-6-[3-(1,1-dioxo-1,4-thiazinan-4-yl)prop-1-ynyl]isoindolin-1-one; hydrochloride]	33	22	> 10000	260
CN1CCC(c2ccc(-c3ccc4c(c3)C(=O)N(C(c3nc5cncnc5[nH]3)c3cc(F)ccc3O)C4)cc2)CC1 (stereo not drawn) [Compound 018, 2-[(5-Fluoro-2-hydroxy-phenyl)-(9H-purin-8-yl)methyl]-6-[4-(1-methyl-4-piperidyl)phenyl]isoindoiin-1-one; hydrochloride]	5	9	3490	20
CN1CCC(c2ccc(-c3ccc4c(c3)C(=O)N(C(c3nc5ccccc5[nH]3)c3cccc(F)c3O)C4)cc2)CC1 (stereo not drawn) [Compound 042, 2-[1H-benzimidazol-2-yl-(3-fluoro-2-hydroxy-phenyl)-methyl]-6-[4-(1-methyl-4-piperidyl)phenyl]isoindolin-1-one; dihydrochloride]	13	31	4000	240
CN1CCC(c2ccc(-c3ccc4c(c3)C(=O)N(C(c3nc5ccccc5[nH]3)c3n[nH]c5c3CCC5)C4)cc2)CC1 (stereo not drawn) [Compound 033, 2-[1H-Benzimidazol-2-yl(1,4,5,6-tetrahydrocyclopenta[c]pyrazol-3-yl)methyl]-6-[4-(1-methyl-4-piperidyl)phenyl]isoindolin-1-one]	6	24	5230	340
Cc1c(-c2ccc(C3CCN(C)CC3)cc2)ccc2ncn(C(c3nc4ccccc4[nH]3)c3cc(F)ccc3O)c(=O)c12 (stereo not drawn) [Compound 055, 3-[1H-benzimidazol-2-yl-(5-fluoro-2-hydroxy-phenyl)-methyl]-5-methyl-6-[4-(1-methyl-4-piperidyl)phenyl]-quinazolin-4-one; dihydrochloride]	1	2	100	10
CN1CCC(c2ccc(-c3ccc4ncn(C(c5nc6ccccc6[nH]5)c5cc(F)ccc5O)c(=O)c4c3)cc2F)CC1 (stereo not drawn) [Compound 001, 3-[1H-Benzimidazol-2-yl-(5-fluoro-2-hydroxy-phenyl)methyl]-6-[3-fluoro-4-(1-methyl-4-piperidyl)phenyl]quinazolin-4-one; hydrochloride]	0.4	1	320	9
CN1CCC(c2ccc(-c3ccc4c(F)cn(C(c5nc6ccccc6[nH]5)c5cc(F)ccc5O)c(=O)c4c3)cc2)CC1 (stereo not drawn) [Compound 054, 2-[1H-benzimidazol-2-yl-(5-fluoro-2-hydroxy-phenyl)-methyl]-4-fluoro-7-[4-(1-methy-4-piperidyl)phenyl]isoquinolin-1-one]	0.4	2	1060	20
COc1ccc2[nH]c(C(c3cc(F)ccc3O)N3Cc4ccc(-c5ccc(C6CCN(C)CC6)cc5)cc4C3=O)nc2c1 (stereo not drawn) [Compound 048, 2-[(5-fluoro-2-hydroxy-phenyl)-(5-methoxy-1H-benzimidazol-2-yl)methyl]-6-[4-(1-methyl-4-piperidyl)phenyl]isoindolin-1-one; formic acid]	4	35	4760	760
[2H]C(c1nc2ccccc2[nH]1)(c1cc(F)ccc1O)N1Cc2ccc(-c3ccc(C4CCN(C)CC4)cc3)cc2C1=O (stereo not drawn) [Compound 036, 2-((1H-benzo[d]imidazol-2-yl)(5-fluoro-2-hydroxyphenyl)methyl-d)-6-(4-(1-methylpiperidin-4-yl)phenyl)isoindolin-1-one]	0.7	2.6	170	7
CN1CCC(c2ccc(-c3ccc4ncn(C(c5nc6ccccc6[nH]5)c5cc(F)ccc5O)c(=O)c4c3F)cc2F)CC1 (stereo not drawn) [Compound 007, 3-[1H-benzimidazol-2-yl-(5-fluoro-2-hydroxy-phenyl)methyl]-5-fluoro-6-[3-fluoro-4-(1-methyl-4-piperidyl)phenyl]quinazolin-4-one; hydrochloride]	0.4	1	520	9
Cc1cccc2[nH]c(C(c3cc(F)ccc3O)N3Cc4ccc(-c5ccc(C6CCN(C)CC6)cc5)cc4C3=O)nc12 (stereo not drawn) [Compound 052, 2-[(5-fluoro-2-hydroxy-phenyl)-(4-methyl-1H-benzimidazol-2-yl)methyl]-6-[4-(1-methyl-4-piperidyl)phenyl]isoindolin-1-one; formic acid]	2	5	4180	370

Further lines, results first:

IC50 [1] [nM]	IC50 [2] [nM]	IC50 [3, 4] [nM]	IC50 [3, 5] [nM]	SMILES
18	32	3740	1170	CN1CCC(c2ccc(-c3ccc4c(c3)C(=O)N(C(c3ccn[nH]3)c3cc(F)ccc3O)C4)cc2)CC1 (stereo not drawn) [Compound 045, 2-[(5-fluoro-2-hydroxy-phenyl)-(1H-pyrazol-3-yl)methyl]-6-[4-(1-methyl-4-piperidyl)phenyl]-isoindolin-1-one]
8	45	> 10000	370	CN1CCC(c2ccc(-c3ccc4c(c3)C(=O)N(C(c3nc5cccnc5[nH]3)c3n[nH]c5c3CCC5)C4)cc2)CC1 (stereo not drawn) [Compound 031, 2-[1H-Imidazo[4,5-b]pyridin-2-yl(1,4,5,6-tetrahydrocyclopenta[c]pyrazol-3-yl)methyl]-6-[4-(1-methyl-4-piperidy)phenyl]isoindolin-1-one]
0.7	3	650	20	O=C1c2cc(-c3ccc(C4CCNCC4)cc3)ccc2CN1C(c1nc2ccccc2[nH]1)c1cc(F)ccc1O (stereo not drawn) [Compound 062, 2-[1H-benzimidazol-2-yl-(5-fluoro-2-hydroxy-phenyl)-methyl]-6-[4-(4-piperidyl)-phenyl]isoindolin-1-one; hydrochloride]
6	48	620	10	Nc1ccc(C#Cc2ccc3c(c2)C(=O)N(C(c2nc4ccccc4[nH]2)c2cc(F)ccc2O)C3)cn1 (stereo not drawn) [Compound 012, 6-[2-(6-Amino-3-pyridyl)ethynyl]-2-[1H-benzimidazol-2-yl-(5-fluoro-2-hydroxy-phenyl)methyl]isoindolin-1-one]
2	5	950	20	CN(C)CCN(C)c1ccc(-c2ccc3c(c2)C(=O)N(C(c2nc4ccccc4[nH]2)c2cc(F)ccc2O)C3)cc1 (stereo not drawn) [Compound 041, 2-[1H-benzimidazol-2-yl-(5-fluoro-2-hydroxy-phenyl)-methyl]-6-[4-[2-(dimethylamino)-ethyl-methyl-amino]phenyl]-isoindolin-1-one; hydrochloride]
